What all share (format): cell-based, HIV-1
Experiment [1] deals with T332S/V362I/Pr R41G virus. Nature of the experiment: microbe, parasite or virus in culture. To be noted: for pEC50: Human immunodeficiency virus 1, MT2, read-out: T332S/V362I/pr41G EC50. Put shortly: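 Multiple-cycle susceptibility: MT-2 cells, 10,000 per well, exposed to 3-fold compound dilutions at 1% DMSO after infection with luciferase-normalized inoculum. Virus: NL4-3-derived Renilla reporter (Gag P373S) with Gag T332S/V362I and protease R41G. Readout Renilla luciferase after 4–5 days, 37 °C.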

Experiment [2] has as its system HIV protease R41G site directed mutant virus. Nature of the experiment: Anti-viral sensitivity of site directed mutants, HIV protease R41G. To be noted: genotype HIV protease R41G, sensitivity relative to wt virus. The text has this:
(§1) Viruses. NLRepRluc virus contains the Renilla luciferase marker in place of the viral nef gene. The proviral plasmid pNLRepRluc was constructed at Bristol-Myers Squibb, starting from a proviral NL4-3 clone (B subtype) that was obtained from the NIH AIDS Research and Reference Reagent Program. The parental recombinant wild type (WT) virus (NLRepRlucP373S) was derived from NLRepRluc and contains the additional substitution of P373 for serine in Gag (within the SP1 spacer), the most common 373 variation in subtype B. Other recombinant viruses (A364V, V370A/ΔT371 and the “T3325 triple” (T332S/V362I+HIV-1 protease R41G)) were generated by site-directed mutagenesis of plasmid pNLRepRlucP373S to introduce those amino acid substitutions in Gag and protease. […] Titers of virus stocks were determined using a luciferase assay (Dual-Luciferase® Reporter Assay System, Promega, Milwaukee, Wis., USA) endpoint.
(§2) Multiple cycle drug susceptibility assay. […] After 4-5 day incubation at 37° C./CO2, virus yields were determined by Renilla luciferase activity (Dual-Luciferase® Reporter Assay System, Promega). The endpoint luminescence was detected on a Wallac Trilux (PerkinElmer).
(§3) Starting from wt virus, the HIV protease R41G substitution was detected in one of three in vitro selections for resistance to the MI compound above along with Gag V362I and Gag T332S. […]

The test system of experiment [3] is T332S/V362I site directed mutant virus. Nature of the experiment: Anti-viral sensitivity of site directed mutants, T332S/V362I. To be noted: genotype T332S/V362I, sensitivity relative to wt virus.
Source text: as §1, §2, §3

Experiment [4] relates to V362I/prR41G site directed mutant virus. Nature of the experiment: Anti-viral sensitivity of site directed mutants, V362I/prR41G. The following applies: genotype V362I/prR41G, sensitivity relative to wt virus.
Source text: as §1, §2, §3

The test system of experiment [5] is V362I site directed mutant virus. Nature of the experiment: Anti-viral sensitivity of site directed mutants, V362I. To be noted: genotype V362I, sensitivity relative to wt virus.
Source text: as §1, §2, §3

In experiment [6] the test system is T332S/prR41G site directed mutant virus. Nature of the experiment: Anti-viral sensitivity of site directed mutants, T332S/prR41G. The following applies: genotype T332S/prR41G, sensitivity relative to wt virus.
Source text: as §1, §2, §3

The test system of experiment [7] is T332S site directed mutant virus. Nature of the experiment: Anti-viral sensitivity of site directed mutants, T332S. The following applies: genotype T332S, sensitivity relative to wt virus.
Source text: as §1, §2, §3

The subject of experiment [8] is NLRepRlucP373S recombinant wild type (WT) virus. Nature of the experiment: microbe, parasite or virus in culture. To be noted: Human immunodeficiency virus 1, MT2, read-out: WT EC50. The gist of the method:
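Multiple-cycle assay: luciferase-normalized NL4-3-derived NLRepRlucP373S (Renilla luciferase in place of nef) infects MT-2 cells, 10,000 cells/well, with 3-fold compound dilutions at 1% DMSO, 4-5 days, 37 °C. EC50 and EC90 fitted by median effect equation against Renilla luminescence, with residual signal under 3 μM NFV as background.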

Another experiment deals with gag V370A/ΔT371 virus. Nature of the experiment: microbe, parasite or virus in culture. The following applies: Human immunodeficiency virus 1, MT2, read-out: V370A/ΔT371 EC50. Put shortly: (§4)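 Virus yield quantified by Renilla luciferase after 4–5 day culture at 37°C of MT-2 cells (10,000/well) with 3-fold serially diluted compound at 1% final DMSO. Reporter viruses were NL4-3 P373S derivatives bearing Gag A364V or V370A/ΔT371, inputs matched on luciferase endpoint.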

The test system of experiment [9] is A364V site directed mutant virus. Briefly: microbe, parasite or virus in culture. The following applies: Human immunodeficiency virus 1, MT2, read-out: A364V EC50. Put shortly:
as §4

This passage reports Fold wt and EC50 results from US10421774B2 (priority 2016, dated 2019).

pEC50: −log10 of the molar value. Where only a bound is given, the exact number is not on record here.

In the case of `C=C(C)[C@@H]1CC[C@]2(C(=O)O)CC[C@]3(C)[C@H](CC[C@@H]4[C@@]5(C)CC[C@H](OC(=O)CC(C)(C)C(=O)O)C(C)(C)[C@@H]5CC[C@]43C)[C@@H]12` [BVM, 3β-(3-carboxy-3-methyl-butanoyloxy) lup-20(29)-en-28-oic acid], the Fold wt in experiment [1] (genotype T332S/V362I/Pr41G, sensitivity relative to wt virus) amounted to 10; in experiment [2], 1.9; in experiment [3] it was 3.1; in experiment [4], 3.9; in experiment [5], 0.6; in experiment [6], 4.2. In addition, the Fold wt in experiment [7] amounted to 23.
With `C=C(C)[C@@H]1CC[C@]2(NCCN3CCS(=O)(=O)CC3)CC[C@]3(C)[C@H](CC[C@@H]4[C@@]5(C)CC=C(C6=CCC(CCOc7ccnc(Cl)c7)(C(=O)O)CC6)C(C)(C)[C@@H]5CC[C@]43C)[C@@H]12` (stereo partly drawn) [Example A35, 1-(2-((2-chloropyridin-4-yl)oxy)ethyl)-4-((1R,3aS,5aR,5bR,7aR,11aS,11bR,13aR,13bR)-3a-((2-(1,1-dioxidothiomorpholino)ethyl)amino)-5a,5b,8,8,11a-pentamethyl-1-(prop-1-en-2-yl)-2,3,3a,4,5,5a,5b,6,7,7a,8,11,11a,11b,12,13,13a,13b-octadecahydro-1H-cyclopenta[a]chrysen-9-yl)cyclohex-3-ene-1-carboxylic acid], the pEC50 in experiment [1] is less than 7.30; in [8], greater than 7.30; in the experiment on gag V370A/ΔT371 virus, 5.52; in experiment [9] it was 6.63.
On the same counts, the results for `C=C(C)[C@@H]1CC[C@]2(NCCN3CCS(=O)(=O)CC3)CC[C@]3(C)[C@H](CC[C@@H]4[C@@]5(C)CC=C(C6=CC[C@@](COc7cccc(F)n7)(C(=O)O)CC6)C(C)(C)[C@@H]5CC[C@]43C)[C@@H]12` [Example 29, (S)-4-((1R,3aS,5aR,5bR,7aR,11aS,11bR,13aR,13bR)-3a-((2-(1,1-dioxidothiomorpholino)ethyl)amino)-5a,5b,8,8,11a-pentamethyl-1-(prop-1-en-2-yl)-2,3,3a,4,5,5a,5b,6,7,7a,8,11,11a,11 b,12,13,13a,13b-octadecahydro-1H-cyclopenta[a]chrysen-9-yl)-1-(((6-fluoropyridin-2-yl)oxy)methyl)cyclohex-3-ene-1-carboxylic acid] are 7.68, 8.30, 7.68 and 8.30.
On to `C=C(C)[C@@H]1CC[C@]2(NCCN3CCS(=O)(=O)CC3)CC[C@]3(C)[C@H](CC[C@@H]4[C@@]5(C)CC=C(C6=CCC(COc7nnnn7C)(C(=O)O)CC6)C(C)(C)[C@@H]5CC[C@]43C)[C@@H]12` (some centres unmarked) [Example 13], for which the pEC50 is 8.15 in experiment [1], 8.70 in experiment [8], 8.15 in the experiment on gag V370A/ΔT371 virus and 7.62 in experiment [9].
Turning to `C=C(C)[C@@H]1CC[C@]2(NCCN3CCS(=O)(=O)CC3)CC[C@]3(C)[C@H](CC[C@@H]4[C@@]5(C)CC=C(C6=CCC(CCOc7nccc(C)n7)(C(=O)O)CC6)C(C)(C)[C@@H]5CC[C@]43C)[C@@H]12` (stereo partly drawn) [Example A26, 4-((1R,3aS,5aR,5bR,7aR,11aS,11bR,13aR,13bR)-3a-((2-(1,1-dioxidothiomorpholino)ethyl)amino)-5a,5b,8,8,11a-pentamethyl-1-(prop-1-en-2-yl)-2,3,3a,4,5,5a,5b,6,7,7a,8,11,11a,11b,12,13,13a,13b-octadecahydro-1H-cyclopenta[a]chrysen-9-yl)-1-(2-((4-methylpyrimidin-2-yl)oxy)ethyl)cyclohex-3-ene-1-carboxylic acid], the pEC50 in experiment [1] was less than 7.30; in [8], 8.30; with gag V370A/ΔT371 virus, less than 7.30; in experiment [9], less than 7.30.
As to `C=C(C)[C@@H]1CC[C@]2(NC[C@H](O)COC)CC[C@]3(C)[C@H](CC[C@@H]4[C@@]5(C)CC=C(C6=CC[C@](COc7ncccc7C#N)(C(=O)O)CC6)C(C)(C)[C@@H]5CC[C@]43C)[C@@H]12` [Example A11, (R)-1-(((3-cyanopyridin-2-yl)oxy)methyl)-4-((1R,3aS,5aR,5bR,7aR,11aS,11bR,13aR,13bR)-3a-(((S)-2-hydroxy-3-methoxypropyl)amino)-5a,5b,8,8,11a-pentamethyl-1-(prop-1-en-2-yl)-2,3,3a,4,5,5a,5b,6,7,7a,8,11,11a,11b,12,13,13a,13b-octadecahydro-1H-cyclopentalalchrysen-9-yl)cyclohex-3-enecarboxylic acid], the pEC50 was 7.77 in experiment [1], 7.96 in experiment [8], 7.77 with gag V370A/ΔT371 virus and 6.55 in experiment [9].
As for `C=C(C)[C@@H]1CC[C@]2(NCCN3CCS(=O)(=O)CC3)CC[C@]3(C)[C@H](CC[C@@H]4[C@@]5(C)CC=C(C6=CCC(CCOc7cc(OC)ccn7)(C(=O)O)CC6)C(C)(C)[C@@H]5CC[C@]43C)[C@@H]12` (stereo partly drawn) [Example A32, 4-((1R,3aS,5aR,5bR,7aR,11aS,11bR,13aR,13bR)-3a-((2-(1,1-dioxidothiomorpholino)ethyl)amino)-5a,5b,8,8,11a-pentamethyl-1-(prop-1-en-2-yl)-2,3,3a,4,5,5a,5b,6,7,7a,8,11,11a,11b,12,13,13a,13b-octadecahydro-1H-cyclopenta[a]chrysen-9-yl)-1-(2-((4-methoxypyridin-2-yl)oxy)ethyl)cyclohex-3-ene-1-carboxylic acid], the pEC50 was 6.38 in [1], 8.22 in [8], less than 7.30 with gag V370A/ΔT371 virus and less than 7.30 in experiment [9].
`C=C(C)[C@@H]1CC[C@]2(NCCN3CCS(=O)(=O)CC3)CC[C@]3(C)[C@H](CC[C@@H]4[C@@]5(C)CC=C(C6=CC[C@](COc7ccccn7)(C(=O)O)CC6)C(C)(C)[C@@H]5CC[C@]43C)[C@@H]12` [Example 20, (R)-4-((1R,3aS,5aR,5bR,7aR,11aS,11bR,13aR,13bR)-3a-((2-(1,1-dioxidothiomorpholino)ethyl)amino)-5a,5b,8,8,11a-pentamethyl-1-(prop-1-en-2-yl)-2,3,3a,4,5,5a,5b,6,7,7a,8,11,11a,11b,12,13,13a,13b-octadecahydro-1H-cyclopenta[a]chrysen-9-yl)-1-((pyridin-2-yloxy)methyl)cyclohex-3-ene-1-carboxylic acid]: the pEC50 (in experiment [1]; in experiment [8]; in the experiment with gag V370A/ΔT371 virus; in experiment [9]) was greater than 7.30 throughout.
